Laboratory results published in ChEMBL document CHEMBL4477208, “Discovery and Rational Design of Pteridin-7(8H)-one-Based Inhibitors Targeting FMS-like Tyrosine Kinase 3 (FLT3) and Its Mutants” (J Med Chem, 2016).
Active and inactive are the calls of the source. The calls are words filed in the database; no cut-off is given here.

Legend:
[1] = tested on: MV4-11; assay: Cell cycle arrest in human MV4-11 cells assessed as accumulation at G2 phase at 1 nM after 48 hrs by PI/RNase staining based FACS analysis (reference value: 13.95%); type: functional
[2] = tested on: MV4-11; assay: Cell cycle arrest in human MV4-11 cells assessed as accumulation at G2 phase at 10 nM after 48 hrs by PI/RNase staining based FACS analysis (reference value: 13.95%); type: functional
[3] = tested on: MV4-11; assay: Cell cycle arrest in human MV4-11 cells assessed as accumulation at G0/G1 phase at 100 nM after 48 hrs by PI/RNase staining based FACS analysis (reference value: 69.55%); type: functional
[4] = tested on: MV4-11; assay: Cell cycle arrest in human MV4-11 cells assessed as accumulation at subG1 phase after 48 hrs by PI/RNase staining based FACS analysis; type: functional
[5] = tested on: MV4-11; assay: Induction of apoptosis in human MV4-11 cells assessed as necrotic cells at 1 nM after 48 hrs by annexin V/propidium iodide staining based FACS analysis (reference value: 0.05%); type: functional
[6] = tested on: MV4-11; assay: Induction of apoptosis in human MV4-11 cells assessed as viable cells at 10 nM after 48 hrs by annexin V/propidium iodide staining based FACS analysis (reference value: 90.60%); type: functional; conditions: MV4-11, 48 h, read-out: Activity
[7] = tested on: MV4-11; assay: Induction of apoptosis in human MV4-11 cells assessed as early apoptotic cells at 10 nM after 48 hrs by annexin V/propidium iodide staining based FACS analysis (reference value: 6.31%); type: functional
[8] = tested on: MV4-11; assay: Induction of apoptosis in human MV4-11 cells assessed as late apoptotic cells at 100 nM after 48 hrs by annexin V/propidium iodide staining based FACS analysis (reference value: 3.01%); type: functional
[9] = tested on: MV4-11; assay: Induction of apoptosis in human MV4-11 cells assessed as viable cells at 1000 nM after 48 hrs by annexin V/propidium iodide staining based FACS analysis (reference value: 90.60%); type: functional; conditions: MV4-11, 48 h, read-out: Activity
[10] = tested on: MV4-11; assay: Induction of apoptosis in human MV4-11 cells assessed as early apoptotic cells at 1000 nM after 48 hrs by annexin V/propidium iodide staining based FACS analysis (reference value: 6.31%); type: functional
[11] = tested on: MV4-11; assay: Induction of apoptosis in human MV4-11 cells assessed as late apoptotic cells at 1000 nM after 48 hrs by annexin V/propidium iodide staining based FACS analysis (reference value: 3.01%); type: functional
[12] = tested on: MV4-11; assay: Induction of apoptosis in human MV4-11 cells assessed as late apoptotic cells at 10000 nM after 48 hrs by annexin V/propidium iodide staining based FACS analysis (reference value: 3.01%); type: functional
[13] = Half life in overnight fasted Sprague-Dawley rat plasma at 1 mg/kg, iv up to 24 hrs by LC-MS/MS analysis; type: ADME, organism-based
[14] = AUC (0 to infinity) in overnight fasted Sprague-Dawley rat plasma at 1 mg/kg, iv up to 24 hrs by LC-MS/MS analysis; type: ADME, organism-based; design: dose 1 mg/kg, route intravenous, time infinity
[15] = Half life in overnight fasted Sprague-Dawley rat plasma at 10 mg/kg administered via oral gavage up to 24 hrs by LC-MS/MS analysis; type: ADME, organism-based
[16] = tested on: THP-1; assay: Antiproliferative activity against human THP1 cells after 72 hrs by MTT assay; type: functional, cell-based; conditions: THP-1, 72 h
[17] = tested on: HL-60; assay: Antiproliferative activity against human HL60 cells after 72 hrs by MTT assay; type: functional, cell-based; conditions: HL-60, 72 h
[18] = tested on: NCI-H1975; assay: Antiproliferative activity against human NCI-H1975 cells after 72 hrs by SRB assay; type: functional, cell-based; conditions: NCI-H1975, 72 h
[19] = tested on: RKO; assay: Antiproliferative activity against human RKO cells after 72 hrs by SRB assay; type: functional, cell-based
[20] = tested on: HCT-116; assay: Antiproliferative activity against human HCT116 cells after 72 hrs by SRB assay; type: functional, cell-based; conditions: HCT-116, 72 h
[21] = tested on: HT-29; assay: Antiproliferative activity against human HT-29 cells after 72 hrs by SRB assay; type: functional, cell-based; conditions: HT-29, 72 h
[22] = tested on: SH-SY5Y; assay: Antiproliferative activity against human SH-SY5Y cells after 72 hrs by SRB assay; type: functional, cell-based
[23] = tested on: MCF7; assay: Antiproliferative activity against human MCF7 cells after 72 hrs by SRB assay; type: functional, cell-based; conditions: MCF7, 72 h
[24] = tested on: MV4-11; assay: Antitumor activity against human MV4-11 cells xenografted in nude BALB/c mouse assessed as tumor growth inhibition administered orally qd for 14 days measured every 2 days; type: functional
[25] = tested on: MV4-11; assay: Antitumor activity against human MV4-11 cells xenografted in nude BALB/c mouse assessed as tumor growth inhibition at 50 mg/kg, po qd for 14 days measured every 2 days; type: functional; conditions: MV4-11, po, read-out: TGI
[26] = target: Receptor-type tyrosine-protein kinase FLT3 (Homo sapiens, UniProt P36888, D835Y); assay: Binding affinity to human partial length FLT3 D835Y mutant (580 to 969 residues) expressed in bacterial expression system after 1 hr
[27] = target: Receptor-type tyrosine-protein kinase FLT3 (Homo sapiens, UniProt P36888, D835V); assay: Binding affinity to human partial length FLT3 D835V mutant (592 to 969 residues) expressed in mammalian expression system after 1 hr
[28] = tested on: MV4-11; assay: Antitumor activity against human MV4-11 cells xenografted in nude BALB/c mouse assessed as reduction in tumor cell proliferation by measuring Ki67 positive cells at 50 mg/kg, po qd measured after 1 to 3 days by immunohistochemical assay; type: functional, organism-based
[29] = tested on: MV4-11; assay: Antitumor activity against human MV4-11 cells xenografted in nude BALB/c mouse assessed as induction of late stage apoptosis at 50 mg/kg, po qd measured after 1 to 3 days by TUNEL assay; type: functional, organism-based
[30] = tested on: MV4-11; assay: Cell cycle arrest in human MV4-11 cells assessed as cell debris level at 1000 nM after 48 hrs by PI/RNase staining based FACS analysis; type: functional
[31] = target: Dual specificity mitogen-activated protein kinase kinase 5 (Homo sapiens) (UniProt Q13163); assay: Inhibition of human MEK5 expressed in mammalian system assessed as remaining enzyme activity at 1 uM relative to untreated control
Dual specificity mitogen-activated protein kinase kinase 5 (Homo sapiens), sequence (Q13163 whole entry): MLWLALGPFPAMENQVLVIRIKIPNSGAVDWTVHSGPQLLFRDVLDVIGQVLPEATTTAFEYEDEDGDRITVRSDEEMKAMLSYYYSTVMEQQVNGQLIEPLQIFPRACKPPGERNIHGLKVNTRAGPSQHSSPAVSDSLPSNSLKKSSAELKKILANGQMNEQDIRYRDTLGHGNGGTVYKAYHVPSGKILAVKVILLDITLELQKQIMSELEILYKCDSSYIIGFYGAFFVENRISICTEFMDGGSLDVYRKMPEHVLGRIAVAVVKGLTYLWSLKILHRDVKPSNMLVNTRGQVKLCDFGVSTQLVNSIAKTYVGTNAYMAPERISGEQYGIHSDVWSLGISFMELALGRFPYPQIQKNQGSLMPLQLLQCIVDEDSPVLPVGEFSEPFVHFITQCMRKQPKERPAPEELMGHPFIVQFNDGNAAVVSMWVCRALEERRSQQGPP

[32] = target: Receptor-type tyrosine-protein kinase FLT3 (Homo sapiens) (UniProt P36888); assay: Inhibition of human FLT3 expressed in bacterial system assessed as remaining enzyme activity at 1 uM relative to untreated control
[33] = target: Macrophage colony-stimulating factor 1 receptor (Homo sapiens) (UniProt P07333); assay: Inhibition of human CSF1R expressed in bacterial system assessed as remaining enzyme activity at 1 uM relative to untreated control
Macrophage colony-stimulating factor 1 receptor (Homo sapiens), sequence (P07333 whole entry): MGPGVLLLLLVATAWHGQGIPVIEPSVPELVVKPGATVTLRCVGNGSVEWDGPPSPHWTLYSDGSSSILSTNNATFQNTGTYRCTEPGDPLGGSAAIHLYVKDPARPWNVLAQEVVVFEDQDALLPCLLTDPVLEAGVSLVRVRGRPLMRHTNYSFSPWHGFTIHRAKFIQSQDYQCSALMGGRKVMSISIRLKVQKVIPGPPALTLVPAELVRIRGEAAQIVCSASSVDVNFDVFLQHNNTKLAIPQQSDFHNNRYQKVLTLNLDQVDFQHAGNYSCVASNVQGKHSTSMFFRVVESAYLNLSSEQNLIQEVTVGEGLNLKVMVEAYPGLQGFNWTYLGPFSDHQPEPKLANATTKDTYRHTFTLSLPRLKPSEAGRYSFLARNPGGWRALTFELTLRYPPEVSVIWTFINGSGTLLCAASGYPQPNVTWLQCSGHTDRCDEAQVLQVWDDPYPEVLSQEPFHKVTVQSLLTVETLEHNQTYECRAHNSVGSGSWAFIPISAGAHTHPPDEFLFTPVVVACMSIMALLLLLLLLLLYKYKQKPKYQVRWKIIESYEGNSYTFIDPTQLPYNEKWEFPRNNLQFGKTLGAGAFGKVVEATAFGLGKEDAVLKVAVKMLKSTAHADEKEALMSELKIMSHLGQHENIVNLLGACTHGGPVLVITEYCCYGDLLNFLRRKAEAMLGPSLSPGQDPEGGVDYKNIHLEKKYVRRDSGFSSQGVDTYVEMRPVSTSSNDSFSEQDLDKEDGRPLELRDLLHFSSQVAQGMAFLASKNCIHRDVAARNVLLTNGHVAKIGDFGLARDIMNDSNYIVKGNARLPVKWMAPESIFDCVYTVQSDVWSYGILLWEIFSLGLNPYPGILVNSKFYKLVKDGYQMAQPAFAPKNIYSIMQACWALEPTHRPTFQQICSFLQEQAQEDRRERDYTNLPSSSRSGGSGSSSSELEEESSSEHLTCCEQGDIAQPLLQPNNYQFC

[34] = tested on: Receptor-type tyrosine-protein kinase FLT3 (Homo sapiens), P36888 [UNDEFINED MUTATION]; assay: Inhibition of human FLT3 ITD/D835V mutant expressed in mammalian system assessed as remaining enzyme activity at 1 uM relative to untreated control
[35] = tested on: Receptor-type tyrosine-protein kinase FLT3 (Homo sapiens), P36888 [UNDEFINED MUTATION]; assay: Inhibition of human FLT3 ITD/F691L mutant expressed in mammalian system assessed as remaining enzyme activity at 1 uM relative to untreated control
[36] = tested on: MV4-11; assay: cells; conditions: Homo sapiens, MV4-11, 72 h
Description: Antiproliferative activity against human MV4-11 cells harboring FLT3-ITD mutant after 72 hrs by MTT assay

[37] = tested on: K562; assay: cells; conditions: Homo sapiens, K562, 72 h
Description: Antiproliferative activity against FLT3-deficient human K562 cells after 72 hrs by MTT assay

Cc1cc(Nc2ncc3ncc(=O)n(-c4ccc(N)cc4)c3n2)ccc1N1CCN(C)CC1
Activity [1]: 12.59% | Activity [2]: 11.4% | Activity [3]: 85.92% | Activity [4]: Dose-dependent effect | Activity [5]: 0.1% | viability at 0.01 µM [6]: 86.9% | Activity [7]: 9.71% | Activity [8]: 16.4% | viability at 1 µM [9]: 27.3% | Activity [10]: 38.4% | Activity [11]: 34.3% | Activity [12]: 31.3% | half-life [13]: 3.11 h | AUC(0-inf) [14]: 119 ng·h/mL | half-life [15]: 4.49 h | IC50 [16]: > 10000 nM | IC50 [17]: 1380 nM | IC50 [18]: 4460 nM | IC50 [19]: 1930 nM | IC50 [20]: 2360 nM | IC50 [21]: 3020 nM | IC50 [22]: 5570 nM | IC50 [23]: > 10000 nM | TGI [24]: Dose-dependent effect | inhibition in vivo at 50 mg/kg [25]: 128% | Kd [26]: 2 nM | Kd [27]: 0.25 nM | Activity [28]: Active | Activity [29]: Active | Activity [30]: 16.38% | Activity [31]: < 1% | Activity [32]: < 1% | Activity [33]: < 1% | Activity [34]: < 1% | Activity [35]: < 1% | IC50 [36]: 51 nM | IC50 [37]: > 10000 nM
